# Measurements reported in US20200316092A1, “METHODS OF DIAGNOSIS AND TREATMENT OF LIVER DISEASES USING OBETICHOLIC ACID” (Intercept Pharmaceuticals, Inc., priority 2019, published 2020).
# “Also recorded” adds a separate entry of the source.
# Assays:
# Type in all cases: in vivo, human
# [1] = tested on: subjects with nonalcoholic steatohepatitis with fibrosis; experiment: Phase 1 study: liver chemistries (ALT, AST, GGT, bilirubin, ALP); details: Day 85 compared to baseline
# Source text: (§1) The secondary objectives of this study are to evaluate the pharmacodynamics of OCA on FXR activation and to evaluate liver chemistries and the pharmacodynamics of OCA on biomarkers of NASH, including inflammation, apoptosis, and oxidation stress.
# [2] = tested on: liver function of NASH subjects; experiment: HepQuant-SHUNT test: disease severity index (DSI) score
# Source text: The HepQuant®-SHUNT test uses simultaneous orally administered d4-cholate and intravenously administered 13C-cholate (i.e. intravenous (24-^13C cholate) and oral (2,2,4,4-^2H cholate) together with mass spectrometry analysis of five serum samples from the subject to accurately measure liver function and generate a disease severity index (DSI) score. HepQuant®-STAT is a simpler test that uses only orally administered d4-cholate and a single serum sample from the subject to estimate liver function (STAT).
# Briefly, the HepQuant®-SHUNT test allows for simultaneous measurement of the perfusion/uptake from portal circulation and perfusion/uptake from systemic circulation, as shown in FIGS. 1 and 2. In a HepQuant®-SHUNT test, a subject is orally administered 40 mg of d4-cholate and intravenously administered 20 mg of 13C-cholate. Blood samples are then isolated from the subject at 5, 20, 45, 60 and 90 minutes after cholate administration. For each sample, mass spectrometry is used to determine the Portal Hepatic Filtration Rate (Portal HFR) and Systemic Hepatic Filtration Rate (Systemic HFR). The Portal HFR is defined as the clearance of 4D-cholate (dose AUC^−1 kg body weight^−1, typically mL mini kg^−1) and the Systemic HFR is defined as the clearance of 13C-cholate (dose AUC^−1 kg body weight^−1, typically mL min^−1 kg^−1). The Portal HFR and Systemic HFR can then be used to calculate a Disease Severity Index (DSI) score. The DSI can be used to determine the extent of liver function, and therefore the extent of liver damage/disease in the subject. Thus, the DSI score can be used to diagnose a subject with a disease. For example, a DSI greater than 16.5 can indicate that the subject will likely have biopsy-proven NASH. A DSI score can also be used to determine the percent likelihood of endoscopic finding of varices in subjects with NASH or hepatitis C virus infection, as shown in FIG. 3. DSI scores can also be measured multiple times during a course of treatment described herein (a treatment regimen) to determine the efficacy of the course of treatment. For example, a baseline DSI score can be measured by performing a HepQuant®-SHUNT test prior to the start of the treatment regimen (i.e. prior to the first administration of the treatment regimen) and then a second DSI score can be measured at a time point during the treatment regimen. The first and second DSI scores can compared to determine a DSI difference score. For example, a reduction in DSI score from the baseline measurement can indicate that the course of treatment is beneficial as the subject's liver function is improving. Depending on the DSI difference score, the treatment regimen can be adjusted, continued or discontinued.
# In some aspects, a DSI difference score that is greater than or equal to 2 (i.e. a decrease in the DSI scores of 2 or more over the course of treatment) is considered to be clinically meaningful, based on reducing the probability of any varices from approximately 30% to 20% for subjects with a baseline DSI of 20.
# As part of the HepQuant®-SHUNT test, labeled cholate was administered intravenously and orally. The HepQuant®-SHUNT tests were used to determine disease severity index (DSI) scores.
# [3] = Phase 1 study: plasma pharmacokinetics of total OCA; details: 10 mg QD or 25 mg QD
# Source text: (§2) The primary objectives of this study are to evaluate the safety and tolerability of OCA treatment in subjects with NASH with fibrosis and to evaluate single- and multiple-dose pharmacokinetics of OCA, its conjugates, and metabolites in subjects with NASH with fibrosis.
# Furthermore, although there were a limited number of subjects having a fibrosis score of F4, plasma exposure was lower in these subjects as compared to the subjects with a fibrosis score of F1 or F2/F3.
# FXR activation = experiment: Phase 1 study: pharmacodynamic markers of FXR activation (C4, bile acids, FGF-19); details: Day 85 compared to baseline
# Source text: as §1
# Furthermore, plasma bile acids were suppressed by administration of OCA, but no dose response was observed.
# [4] = Phase 1 study: liver exposure of OCA and its conjugates
# [5] = tested on: subjects with nonalcoholic steatohepatitis with fibrosis; experiment: Phase 1 placebo-controlled study: safety and tolerability (TEAE incidence); details: for Total Number of TEAEs: 85 days; for Total Number of TEAEs / Any Serious TEAE / Constipation (TEAE incidence) / Diabetes mellitus (TEAE) / Fatigue (TEAE incidence) / Headache (TEAE incidence) / Hepatobiliary disorders (SOC) (TEAE) / Hypercholesterolemia (TEAE) / LDL Increased, Mild (maximum severity) / LDL Increased, Moderate (maximum severity) / LDL Increased, Severe (maximum severity) / Low density lipoprotein increased (TEAE incidence) / Nausea (TEAE incidence) / Pneumonia (TEAE incidence) / Pruritis (TEAE incidence) / Pruritus, Mild (maximum severity) / Pruritus, Moderate (maximum severity) / Pruritus, Severe (maximum severity) / Subjects with at least one TEAE: n = 20
# Source text: Example 1: A Phase 1, Double-Blind, Randomized, Placebo-Controlled Study to Evaluate Safety, Pharmacokinetics, and Pharmacodynamics of Obeticholic Acid in Subjects with Nonalcoholic Steatohepatitis with Fibrosis
# as §2
# The study comprised three treatment groups-10 mg QD, 25 mg QD and Placebo QD.
smiles,measurement,setting,value
"CC[C@H]1[C@@H](O)[C@@H]2[C@H](CC[C@]3(C)[C@@H]([C@H](C)CCC(=O)O)CC[C@@H]23)[C@@]2(C)CC[C@@H](O)C[C@@H]12 [OCA, 3α,7α-dihydroxy-6α-ethyl-5β-cholan-24-oic acid]","ALP levels, change from baseline",[1],dose dependent increase
same,"biochemistry markers of hepatic cytotoxicity and dysfunction (ALT, AST, GGT, total bilirubin, direct bilirubin)",[1]; no dose-dependent response,suppressed
same,reduction in DSI,"[2]; 10 mg QD or 25 mg QD, Day 85, greater response at 25 mg QD",dose-dependent and clinically meaningful reduction; also recorded: dose-dependent response
same,subjects treated with OCA among the 18 subjects with clinically relevant ΔDSI of at least −2,"[2]; F1, F2/F3 or F4, 10 mg QD or 25 mg QD, Day 85",17 subjects
same,"Responders (≥2 point decrease in DSI), %","[2]; F1, OCA 10 mg QD, Day 85, n = 3",(67) %
same,"Responders (≥2 point decrease in DSI), %","[2]; F1, OCA 25 mg QD, Day 85, n = 5",(20) %
same,change in DSI score (Day 85−Baseline) vs placebo,"[2]; F2/F3 NASH subjects, greatest effect at 25 mg QD",greater improvement in DSI score
same,"Responders (≥2 point decrease in DSI), %","[2]; F4, OCA 10 mg QD, Day 85, n = 2",(50) %
same,"Responders (≥2 point decrease in DSI), %","[2]; F4, OCA 25 mg QD, Day 85, n = 1",(100) %
same,"plasma exposure of OCA, NASH subjects vs healthy subjects",[3]; day 1 and day 85,modestly higher in NASH subjects
same,plasma exposure in F4 subjects compared to F1 or F2/F3,[3]; limited number of F4 subjects,lower
same,"FGF-19 levels, percent change from baseline",FXR activation,increased with OCA dose
same,"C4 levels, percent change from baseline",FXR activation; no dose response,suppressed
same,"plasma bile acids, percent change from baseline",FXR activation; no dose response,suppressed
same,liver exposure of OCA across fibrosis scores,"[4]; 10 mg QD, F1 or F2/F3",generally similar across subjects with different fibrosis scores
same,liver exposure of OCA across fibrosis scores,"[4]; 25 mg QD, F1, F2/F3 or F4",generally similar across subjects with different fibrosis scores
same,liver exposure of OCA across fibrosis scores after normalization by dose,"[4]; F1, F2/F3 or F4",generally similar across subjects with different fibrosis scores
same,TEAEs leading to study discontinuation,[5]; 10 mg QD and 25 mg QD for 12 weeks,no TEAEs leading to study discontinuation
same,safety and tolerability,"[5]; 10 mg QD and 25 mg QD for 12 weeks, NASH subjects with fibrosis",generally safe and well tolerated
same,Total Number of TEAEs,[5]; OCA 10 mg QD,29
same,Any Serious TEAE,[5]; OCA 10 mg QD,0 n (%)
same,Constipation (TEAE incidence),[5]; OCA 10 mg QD,2 (10%) n (%)
same,Diabetes mellitus (TEAE),[5]; OCA 10 mg QD,1 (5%) n (%)
same,Fatigue (TEAE incidence),[5]; OCA 10 mg QD,2 (10%) n (%)
same,Headache (TEAE incidence),[5]; OCA 10 mg QD,0 n (%)
same,Hepatobiliary disorders (SOC) (TEAE),[5]; OCA 10 mg QD,0 n (%)
same,Hypercholesterolemia (TEAE),[5]; OCA 10 mg QD,0 n (%)
same,"LDL Increased, Mild (maximum severity)",[5]; OCA 10 mg QD,2 (10%) n (%)
same,"LDL Increased, Moderate (maximum severity)",[5]; OCA 10 mg QD,0 n (%)
same,"LDL Increased, Severe (maximum severity)",[5]; OCA 10 mg QD,0 n (%)
same,Low density lipoprotein increased (TEAE incidence),[5]; OCA 10 mg QD,2 (10%) n (%)
same,Nausea (TEAE incidence),[5]; OCA 10 mg QD,0 n (%)
same,Pneumonia (TEAE incidence),[5]; OCA 10 mg QD,0 n (%)
same,Pruritis (TEAE incidence),[5]; OCA 10 mg QD,3 (15%) n (%)
same,"Pruritus, Mild (maximum severity)",[5]; OCA 10 mg QD,3 (15%) n (%)
same,"Pruritus, Moderate (maximum severity)",[5]; OCA 10 mg QD,0 n (%)
same,"Pruritus, Severe (maximum severity)",[5]; OCA 10 mg QD,0 n (%)
same,Subjects with at least one TEAE,[5]; OCA 10 mg QD,12 (60%) n (%)
same,Total Number of TEAEs,[5]; OCA 25 mg QD,36
same,Any Serious TEAE,[5]; OCA 25 mg QD,0 n (%)
same,Constipation (TEAE incidence),[5]; OCA 25 mg QD,2 (10%) n (%)
same,Diabetes mellitus (TEAE),[5]; OCA 25 mg QD,0 n (%)
same,Fatigue (TEAE incidence),[5]; OCA 25 mg QD,3 (15%) n (%)
same,Headache (TEAE incidence),[5]; OCA 25 mg QD,0 n (%)
same,Hepatobiliary disorders (SOC) (TEAE),[5]; OCA 25 mg QD,0 n (%)
same,Hypercholesterolemia (TEAE),[5]; OCA 25 mg QD,1 (5%) n (%)
same,"LDL Increased, Mild (maximum severity)",[5]; OCA 25 mg QD,1 (5%) n (%)
same,"LDL Increased, Moderate (maximum severity)",[5]; OCA 25 mg QD,1 (5%) n (%)
same,"LDL Increased, Severe (maximum severity)",[5]; OCA 25 mg QD,0 n (%)
same,Low density lipoprotein increased (TEAE incidence),[5]; OCA 25 mg QD,2 (10%) n (%)
same,Nausea (TEAE incidence),[5]; OCA 25 mg QD,0 n (%)
same,Pneumonia (TEAE incidence),[5]; OCA 25 mg QD,2 (10%) n (%)
same,Pruritis (TEAE incidence),[5]; OCA 25 mg QD,5 (25%) n (%)
same,"Pruritus, Mild (maximum severity)",[5]; OCA 25 mg QD,2 (10%) n (%)
same,"Pruritus, Moderate (maximum severity)",[5]; OCA 25 mg QD,3 (15%) n (%)
same,"Pruritus, Severe (maximum severity)",[5]; OCA 25 mg QD,0 n (%)
same,Subjects with at least one TEAE,[5]; OCA 25 mg QD,15 (75%) n (%)
same,LDL cholesterol,"[5]; OCA treatment groups (10 mg QD, 25 mg QD)",increase in LDL cholesterol
